Measurements as given in patent US20220306606A1, “MODULATOR OF CYSTIC FIBROSIS TRANSMEMBRANE CONDUCTANCE REGULATOR, PHARMACEUTICAL COMPOSITIONS, METHODS OF TREATMENT, AND PROCESS FOR MAKING THE MODULATOR” (Vertex Pharmaceuticals Incorporated, priority 2016, published 2022).
“Also recorded” adds a separate entry of the source. Where two headings read alike, the source gives them in different places.

Key:
[1] = molecular target: T1, F508del-CFTR (Homo sapiens, UniProt P13569, DEL508-508); assay: Membrane potential optical (FLIPR) assay for F508del-CFTR modulators; assay type: cell-based; design: expressed in transfected cells; details: read-out: CFTRdF508 EC50
From the text: Membrane Potential Optical Methods for Assaying Properties of F508del-CFIR Modulators
The assay utilizes fluorescent voltage sensing dyes to measure changes in membrane potential using a fluorescent plate reader (e.g., FLIPR III, Molecular Devices, Inc.) as a readout for increase in functional F508del in NIH 3T3 cells.
5A-A1. Identification of F508del-CTTR Modulators
To identify modulators of F508del, a fluorescence based HTS assay format was developed. This HTS assay utilizes fluorescent voltage sensing dyes to measure changes in membrane potential on the FLIPR III as a measurement for increase in gating (conductance) of F508del NIH 3T3 cells.
Bath Solution #1: (in mM) NaCl 160, KCl 4.5, CaCl2 2, MgCl2 1, HEPES 10, pH 7.4 with NaOH, Glucose 10.
Chloride-free bath solution: Chloride salts in Bath Solution #1 (above) are substituted with gluconate salts.
NIH3T3 mouse fibroblasts stably expressing F508del are used for optical measurements of membrane potential. The cells are maintained at 37° C. in 5% CO2 and 90% humidity in Dulbecco's modified Eagle's medium supplemented with 2 mM glutamine, 10% fetal bovine serum, 1×NEAR, β-ME, 1×pen/strep, and 25 mM HEPES in 175 cm^2 culture flasks, For all optical assays, the cells were seeded at 12,000 cells/well in 384-well matrigel-coated plates and cultured for 18-24 hrs at 37° C. for the potentiator assay. For the correction assays, the cells are cultured at 37° C. with and without compounds for 18-24 hours.

[2] = molecular target: T2, Human Serum Albumin (HSA) (Homo sapiens, UniProt P02768); assay: Chromatographic determination of Human Serum Albumin (HSA) binding; assay type: in vitro ADME; details: ChiralPak HSA column retention time converted to % HSA
T2 construct: purchased Sigma Aldrich 58469AST
Method: 5B. Chromatographic Determination of Human Serum Albumin (HSA) Assay
Chromatographic determination of Human Serum Albumin (HSA) values was performed on a UPLC-MS system using a ChiralPak® HSA column (p/n: 58469AST) from Sigma Aldrich. Mobile phase A consisted of 50 mM ammonium acetate buffer in water adjusted to pH=7.4, and mobile phase B was 2-propanol. The column compartment was kept at constant temperature of 30° C. Determination of retention time on the HSA column was performed by injecting […] of 0.5 mM of compound (in DMSO) using a linear gradient from 0%-30% B in 2.5 minutes, followed by a hold at 30%B for 2 minutes, and the final equilibration step from 30%-0% B in 1.5 minutes, for a total run time of 6 minutes. Flow rate was kept constant throughout the gradient and set to 1.8 mL/min. Compound retention time on the HSA column was converted to % HSA values according to a previously published protocol (Valko, et. al, 2003) correlating column retention times to standard plasma protein binding (PPB) values obtained from dialysis experiments. HSA data for certain compounds are summarized below in Table 8 below.
Valko, K., Nunhuck, S., Bevan, C., Abraham, M. H., Reynolds, D. P. Fast Gradient HPLC Method to Determine Compounds Binding to Human Serwn Albumin. Relationships with Octanol/Water and. Immobilized Artificial Membrane Lipophilicity. J. of Pharm. Sci. 2003, 92, 2236-2248.

[3] = Rat IV and PO PK studies; assay type: in vivo; details: male Sprague-Dawley rats, oral 3 mg/kg
Method: 5C. Experimental Protocol for Rat IV and PO PK Studies
The tested compound was administered to male Sprague-Dawley rats as a single nominal intravenous dose of 3.0 mg/kg as a solution in 10% NMP, 10% solutol, 15% EtOH, 35% PEG400 and 30% D5W. The tested compound was also administered to male Sprague-Dawley rats at single nominal oral dose of 3 mg/kg as a solution in 5% NMP, 30% PEG400, 10% TPGS, 5% PVP-K30 at 5 mL/kg dose volume. Analyses of plasma and dose preparations were performed using LC/MS/MS.
Plasma concentration-time profiles of the tested compound in Sprague-Dawley rats at scheduled (nominal) sampling times were analyzed by noncompartmental pharmacokinetic methods using PK function within Watson LIMS software, Version 7.4.2 (Thermo Scientific Inc, Waltham, Mass.). AUC values were calculated using the linear trapezoidal rule.

[4] = molecular target: T1, F508del-CFTR; assay: F508del-CFTR processing and trafficking in vitro (170 to 180 kDa band); assay type: cell-based; design: CF-HBE were isolated from patients homozygous for F508del; endogenous in cells; host or cells: primary human bronchial epithelial (HBE) cells, F508del/F508del
Method: The CFTR protein delivered to the cell surface by Compound 1 alone or in combination with Compound II (Compound 1/Compound II) was potentiated by Compound III.
Incubation of F508del/F508del-HBE cells for 16 to 24 hours with 1 μM Compound 1 alone or in combination with […].

[5] = molecular target: T1, F508del-CFTR; assay: Ussing chamber chloride transport in HBE cells; assay type: cell-based; design: CF-HBE were isolated from patients homozygous for F508del; endogenous in cells; host or cells: primary human bronchial epithelial (HBE) cells, F508del/F508del
Method: Ussing chamber experiments were performed on polarized airway epithelial cells expressing F508del to further characterize the F508del modulators identified in the optical assays. Non-CF and CF airway epithelia were isolated from bronchial tissue, cultured as previously described (Galietta, L. J. V., Lantero, S., Gazzolo, A., Sacco, O., Romano, L., Rossi, G. A., & Zegarra-Moran, O. (1998) In Vitro Cell Dev. Biol. 34, 478-481), and plated onto Costar® Snapwell™ filters that were precoated with NIH3T3-conditioned media. After four days the apical media was removed and the cells were grown at an air liquid interface for >14 days prior to use.
HBE grown on Costar® Snnapwell™ cell culture inserts were mounted in an Ussing chamber (Physiologic Instruments, Inc., San Diego, Calif.), and the transepithelial resistance and short-circuit current in the presence of a basolateral to apical […] gradient (ISC) were measured using a voltage-clamp system (Department of Bioengineering, University of Iowa, Iowa). Briefly, HBE were examined under voltage-clamp recording conditions (Vhold=0 mV) at 37° C. The basolateral solution contained (in mM) 145 NaCl, 0.83 K2HPO4, 3.3 KH2PO4, 1.2 MgCl2, 1.2 CaCl2, 10 Glucose, 10 HEPES (pH adjusted to 7.35 with NaOH) and the apical solution contained (in mM) 145 NaGluconate, 1.2 MgCl2, 1.2 CaCl2, 10 glucose, 10 HEPES (pH adjusted to 7.35 with NaOH).
5A-A2. […]

[6] = Table 6, F508del NIH 3T3 cells, assay of Example 5A-A1

T1 sequence (P13569 with tags, fused parts or gaps DEL508-508): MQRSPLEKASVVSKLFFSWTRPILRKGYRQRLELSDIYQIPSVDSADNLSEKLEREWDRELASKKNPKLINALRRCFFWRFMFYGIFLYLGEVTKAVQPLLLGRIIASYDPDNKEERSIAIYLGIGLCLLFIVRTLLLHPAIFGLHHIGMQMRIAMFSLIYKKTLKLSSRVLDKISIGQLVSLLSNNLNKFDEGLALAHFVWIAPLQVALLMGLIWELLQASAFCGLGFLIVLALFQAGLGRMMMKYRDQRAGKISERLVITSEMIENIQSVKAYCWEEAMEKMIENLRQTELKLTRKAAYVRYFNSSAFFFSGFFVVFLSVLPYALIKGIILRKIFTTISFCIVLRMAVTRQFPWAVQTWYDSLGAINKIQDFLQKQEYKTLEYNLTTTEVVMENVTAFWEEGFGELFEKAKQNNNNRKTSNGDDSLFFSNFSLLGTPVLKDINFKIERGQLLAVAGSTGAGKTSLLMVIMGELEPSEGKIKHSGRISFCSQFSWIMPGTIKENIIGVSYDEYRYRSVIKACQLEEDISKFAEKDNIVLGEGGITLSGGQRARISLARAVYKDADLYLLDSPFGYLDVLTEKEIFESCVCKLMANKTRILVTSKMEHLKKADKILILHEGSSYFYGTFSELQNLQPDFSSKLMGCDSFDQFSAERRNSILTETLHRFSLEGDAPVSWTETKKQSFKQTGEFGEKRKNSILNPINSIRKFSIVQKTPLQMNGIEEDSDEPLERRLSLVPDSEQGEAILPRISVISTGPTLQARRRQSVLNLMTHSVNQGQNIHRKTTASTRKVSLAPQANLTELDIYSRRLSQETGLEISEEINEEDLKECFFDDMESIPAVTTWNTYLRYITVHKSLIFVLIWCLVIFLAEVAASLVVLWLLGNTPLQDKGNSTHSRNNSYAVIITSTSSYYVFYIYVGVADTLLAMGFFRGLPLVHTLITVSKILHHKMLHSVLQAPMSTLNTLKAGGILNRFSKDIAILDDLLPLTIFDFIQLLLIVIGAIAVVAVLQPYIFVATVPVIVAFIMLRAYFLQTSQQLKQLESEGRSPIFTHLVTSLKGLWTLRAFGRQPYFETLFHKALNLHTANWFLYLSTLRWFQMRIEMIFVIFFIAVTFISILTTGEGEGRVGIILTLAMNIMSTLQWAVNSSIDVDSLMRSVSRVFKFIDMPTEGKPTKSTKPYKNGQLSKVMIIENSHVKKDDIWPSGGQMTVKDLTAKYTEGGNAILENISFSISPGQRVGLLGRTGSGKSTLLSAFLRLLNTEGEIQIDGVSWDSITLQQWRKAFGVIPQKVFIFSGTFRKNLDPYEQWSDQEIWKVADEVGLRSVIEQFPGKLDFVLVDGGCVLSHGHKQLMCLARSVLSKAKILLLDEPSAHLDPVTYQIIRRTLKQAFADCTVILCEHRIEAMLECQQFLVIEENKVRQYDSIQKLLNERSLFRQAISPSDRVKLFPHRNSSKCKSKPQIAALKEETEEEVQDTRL
T2 sequence (P02768 25-609): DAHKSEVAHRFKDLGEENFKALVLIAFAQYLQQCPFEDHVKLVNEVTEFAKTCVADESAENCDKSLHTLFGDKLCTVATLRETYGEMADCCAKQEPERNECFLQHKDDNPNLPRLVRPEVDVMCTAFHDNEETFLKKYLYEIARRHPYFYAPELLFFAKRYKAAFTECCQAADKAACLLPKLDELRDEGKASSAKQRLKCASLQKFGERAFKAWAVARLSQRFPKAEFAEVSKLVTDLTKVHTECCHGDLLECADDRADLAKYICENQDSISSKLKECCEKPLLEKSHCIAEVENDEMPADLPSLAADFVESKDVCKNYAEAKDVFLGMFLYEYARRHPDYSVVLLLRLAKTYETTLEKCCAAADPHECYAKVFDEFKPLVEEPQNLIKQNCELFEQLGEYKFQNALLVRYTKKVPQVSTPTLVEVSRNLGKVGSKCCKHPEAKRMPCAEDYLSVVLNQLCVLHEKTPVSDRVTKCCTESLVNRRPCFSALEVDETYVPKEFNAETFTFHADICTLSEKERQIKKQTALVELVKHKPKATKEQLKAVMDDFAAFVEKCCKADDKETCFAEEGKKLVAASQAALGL

CC1CC(C)(C)N2c3nc(-n4ccc(OCCC5(C(F)(F)F)CC5)n4)ccc3C(=O)OC12 (stereo not shown)
EC50 ([1]; Table 7, Compound 1 and its metabolites): > 30000 nM

C[C@@H]1CN(c2nc(-n3ccc(OCC4(C(F)(F)F)CC4)n3)ccc2C(=O)NS(=N)(=O)c2ccccc2)C(C)(C)C1 (mixture of isomers)
HSA binding [2]: 98.%

C[C@@H]1CN(c2nc(-n3ccc(OCC(C)(C)C)n3)ccc2C(=O)NS(=O)(=O)c2cccnc2N)C(C)(C)C1 [Comp. A, reference compound]
Rat po % F [3]: 28%

C[C@@H]1CN(c2nc(-n3ccc(OCCC4(C(F)(F)F)CC4)n3)ccc2C(=O)NS(=O)(=O)c2ccccc2)C(C)(C)C1 [Compound 1, N-(benzenesulfonyl)-6-[3-[2-[1-(trifluoromethyl)cyclopropyl]ethoxy]pyrazol-1-yl]-2-[(4S)-2,2,4-trimethylpyrrolidin-1-yl]pyridine-3-carboxamide]
Rat po % F [3]: 63%
steady-state levels, fold of untreated levels ([4]; F508del/F508del-HBE cells, 16 to 24 hours, 1 μM Compound 1 alone): 6.5 fold
processing and trafficking of F508del-CFTR ([4]; in vitro): CFTR corrector
chloride transport ([5]; Ussing Chamber, F508del/F508del-HBE cells, listed as Compound I): enhanced chloride transport; also recorded: additive to the effect of Compound II

C[C@@H]1CN(c2nc(-n3ccc(OCCC4(C(F)(F)F)CC4)n3)ccc2C(=O)NS(=O)(=O)c2cccc(F)c2)C(C)(C)C1 [Compound 5]
Rat po % F [3]: 50%

C[C@@H]1CN(c2nc(-n3ccc(OCC4(C(F)(F)F)CCC4)n3)ccc2C(=O)NS(=O)(=O)c2ccccc2)C(C)(C)C1 [Compound 10, N-(Benzenesulfonyl)-6-[3-[[1-(trifluoromethyl)cyclobutyl]methoxy]pyrazol-1-yl]-2-[(4S)-2,2,4-trimethylpyrrolidin-1-yl]pyridine-3-carboxamide]
Rat po % F [3]: 41%

C[C@@H]1CN(c2nc(-n3ccc(OCC4(C(F)(F)F)CC4)n3)ccc2C(=O)NS(=O)(=O)c2ccccc2)C(C)(C)C1 [Compound 14, N-(Benzeuesulfonyl)-6-[3-[[1-(trifluoromethyl)cyclopropyl]methoxy]pyrazol-1-yl]-2-[(4S)-2,2,4-trimethylpyrrolidin-1-yl]pyridine-3-carboxamide]
Rat po % F [3]: 58%

C[C@@H]1CN(c2nc(-n3ccc(OCC4(C(F)(F)F)CC4)n3)ccc2C(=O)NS(=O)(=O)c2ccccc2C#N)C(C)(C)C1 [Compound 26, N-(2-Cyanophenyl)sulfonyl-6-[3-[[1-(trifluoromethyl)cyclopropyl]methoxy]pyrazol-1-yl]-2-[(4S)-2,2,4-trimethylpyrrolidin-1-yl]pyridine-3-carboxamide]
EC50 [1, 6]: < 100 nM

C[C@@H]1CN(c2nc(-n3ccc(OCC4(C(F)(F)F)CC4)n3)ccc2C(=O)NS(=O)(=O)c2ccc(F)cc2)C(C)(C)C1 [Compound 52, N-(4-fluorophenyl)sulfonyl-6-[3-[[1-(trifluoromethyl)cyclopropyl]methoxy]pyrazol-1-yl]-2-[(4S)-2,2,4-trimethylpyrrolidin-1-yl]pyridine-3-carboxamide]
EC50 [1, 6]: 100 to 1000 nM

CC(C)(C)c1cc(C(C)(C)C)c(NC(=O)c2c[nH]c3ccccc3c2=O)cc1O [Compound III, N-(5-hydroxy-2,4-di-tert-butyl-phenyl)-4-oxo-1H-quinoline-3-carboxamide, reference compound]
potentiation of F508del-CFTR delivered to the cell surface ([5]; CFTR delivered by Compound 1 alone or in combination with Compound II): potentiated
